The results in this text go back to US20100227863A1, “SUBSTITUTED 3-(4-HYDROXYPHENYL)-INDOLIN-2-ONE COMPOUNDS” (TOPOTARGET A/S, priority 2007, published 2010).

For this assay, the system named is MCF-7 cells. Briefly: In vitro cell proliferation assay (WST assay). The note with it: total incubation time 72 h, viable cells by WST-1 reagent. In kind it is cell-based. On the procedure: In vitro Cell Proliferation Assay (WST Assay)
MCF-7 cells were seeded in 96-well plates at 3×10^3 cells/well in 100 μL of culture medium, 8 wells were left empty for media only controls.
After 24 h the compound titrations were performed, in a separate dilution plate, by serially diluting the compounds of general formula (I) in culture medium. A 100 μL of each dilution was added to the plated cells, this was done in triplicate, and controls (e.g. DMSO and blanks) were included. The plates were incubated for 24 h at 37° C. in a CO2 incubator. The compound titrations were repeated in a separate dilution plate after 24 h. The media plus compound from the assay plates were then aspirated. A 100 μL of media was then added to all wells, followed by 100 μL of each compound dilution. The plates were incubated for a further 48 h at 37° C. in a CO2 incubator (total incubation time 72 h). The number of viable cells was then assessed using Cell Proliferation Reagent WST-1. 10 μL of WST-1 reagent added to each well and incubated for one to four hours at 37° C. in CO2 incubator. The absorbance was measured (450 nm/690 nm).
The activity of compounds of general formula (I) in reducing the number of viable cells was calculated as:
% activity=[(S^c−B)/(S^o−B)]×100
S^c denotes signal measured in the presence of test compound, S^o denotes signal detected in the absence of compound, and B denotes background signal, measured in blank wells containing medium only. Analyse data using GraphPad Prism.
A general note: Tetrazolium dyes change colour on reduction, which living cells bring about.

In general, IC50 refers to the concentration that gives 50% inhibition. Read a low IC50 as greater potency in that assay.

In the case of `O=C1Nc2c(Br)cccc2C1(c1ccc(O)cc1)C1CCCCC1` (stereo not drawn) [Compound 1062, 7-bromo-3-cyclohexyl-3-(4-hydroxyphenyl)indolin-2-one], the midpoint of inhibition (Homo sapiens, MCF7, 72 h), the IC50, lay at 6.8 nM.

In turn, `Cc1c(F)ccc2c1NC(=O)C2(c1ccc(O)cc1)C1CCCCC1` (stereo not drawn) [Compound 1039, 3-cyclohexyl-6-fluoro-3-(4-hydroxyphenyl)-7-methylindolin-2-one] had a 50% inhibitory concentration (IC50) (Homo sapiens, MCF7, 72 h) of 5.7 nM.

Regarding `O=C1Nc2c(ccc(F)c2F)C1(c1ccc(O)cc1)C1CCCCCC1` (stereo not drawn) [Compound 1018, 3-cycloheptyl-6,7-difluoro-3-(4-hydroxyphenyl)indolin-2-one], where the note is “Homo sapiens, MCF7, 72 h”, the half-maximal inhibitory concentration (IC50) was 3.4 nM.

`Cc1cccc2c1NC(=O)C2(c1ccc(O)cc1)C1CCCCC1` (stereo not drawn) [Compound 1059, 3-cyclohexyl-3-(4-hydroxyphenyl)-7-methylindolin-2-one] yielded an IC50 (Homo sapiens, MCF7, 72 h) of 32.9 nM. This IC50 is about 9.7-fold higher than that of the compound before.

In turn, `O=C1Nc2c(ccc(F)c2F)C1(c1ccc(O)cc1)C1CCCCC1` (stereo not drawn) [Compound 1010, 3-cyclohexyl-6,7-difluoro-3-(4-hydroxyphenyl)indolin-2-one] gave an IC50 (Homo sapiens, MCF7, 72 h) of 7.3 nM.

In turn, `O=C1Nc2c(ccc(F)c2F)C1(c1ccncc1)c1ccc(O)cc1` (stereo not drawn) [Compound 1006, 6,7-difluoro-3-(4-hydroxyphenyl)-3-(pyridin-4-yl)indolin-2-one] registered an IC50 (Homo sapiens, MCF7, 72 h) of 34.5 nM. Against the preceding compound, the IC50 is about 4.7-fold higher.

The compound `COc1ccc2c(c1C)NC(=O)C2(c1ccc(O)cc1)C1CCCCC1` (stereo not drawn) [Compound 1046, 3-cyclohexyl-3-(4-hydroxyphenyl)-6-methoxy-7-methylindolin-2-one] displayed an IC50 (Homo sapiens, MCF7, 72 h) of 12.6 nM.

In the case of `Cc1ccc2c(c1Br)NC(=O)C2(c1ccc(O)cc1)C1CCCCC1` (stereo not drawn) [Compound 1056, 7-bromo-3-cyclohexyl-3-(4-hydroxyphenyl)-6-methylindolin-2-one], the IC50 (Homo sapiens, MCF7, 72 h) came out at 10.5 nM.

`Cc1ccc2c(c1F)NC(=O)C2(c1ccc(O)cc1)C1CCCCCC1` (stereo not drawn) [Compound 1034, 3-cycloheptyl-7-fluoro-3-(4-hydroxyphenyl)-6-methylindolin-2-one] registered an IC50 (Homo sapiens, MCF7, 72 h) of 9.1 nM.

Regarding `O=C1Nc2c(ccc(F)c2F)C1(c1ccc(O)cc1)c1ccc2ccccc2c1` (stereo not drawn) [Compound 1033, 6,7-difluoro-3-(4-hydroxyphenyl)-3-(naphthalene-2-yl)indolin-2-one], half-maximal inhibition (Homo sapiens, MCF7, 72 h) (IC50) required 10.2 nM. This IC50 and that of the compound before are within 1.5-fold of each other.

With `O=C1Nc2c(ccc(F)c2F)C1(c1ccc(O)cc1)c1ccc(F)c(F)c1` (stereo not drawn) [Compound 1022, 3-(3,4-difluorophenyl)-6,7-difluoro-3-(4-hydroxyphenyl)indolin-2-one], under “Homo sapiens, MCF7, 72 h”, the midpoint of inhibition, the IC50, lay at 5.2 nM.

Compound `O=C1Nc2c(ccc(F)c2F)C1(c1ccc(O)cc1)C1CCCCC1` (single isomer, unassigned) [Compound 1028, 3-cyclohexyl-6,7-difluoro-3-(4-hydroxyphenyl)indolin-2-one] came in with an IC50 of more than 500 nM.

`O=C1Nc2c(ccc(F)c2F)C1(c1ccc(O)cc1)C1CCCCC1` (single isomer, unassigned) [Compound 1027, 3-cyclohexyl-6,7-difluoro-3-(4-hydroxyphenyl)indolin-2-one] had an IC50 of 3.9 nM. In other words, the single-digit nanomolar range.

For `O=C1Nc2c(ccc(F)c2F)C1(c1ccc(O)cc1)c1ccc(O)cc1` [Reference compound, 6,7-Difluoro-3,3-bis-(4-hydroxy-phenyl)-1,3-dihydro-indol-2-one, reference compound], where the note is “Homo sapiens, MCF7, 72 h”, the IC50 turned out to be 8.4 nM.

For `Cc1ccc2c(c1Cl)NC(=O)C2(c1ccc(O)cc1)C1CCCCCC1` (stereo not drawn) [Compound 1053, 7-chloro-3-cycloheptyl-3-(4-hydroxyphenyl)-6-methylindolin-2-one], for the setting “Homo sapiens, MCF7, 72 h”, half-maximal inhibition (IC50) required 3.5 nM.

On to `Cc1ccc2c(c1C)NC(=O)C2(c1ccc(O)cc1)C1CCCCC1` (stereo not drawn) [Compound 1025, 3-cyclohexyl-3-(4-hydroxyphenyl)-6,7-dimethylindolin-2-one], for which 25.9 nM corresponded to half-maximal inhibition (Homo sapiens, MCF7, 72 h) (IC50).

For `O=C1Nc2c(C(F)(F)F)cccc2C1(c1ccc(O)cc1)C1CCCCC1` (stereo not drawn) [Compound 1021, 3-cyclohexyl-3-(4-hydroxyphenyl)-7-(trifluoromethyl)indolin-2-one], the concentration for half-maximal inhibition (IC50) (Homo sapiens, MCF7, 72 h) turned out to be 17.5 nM.

The compound `COc1ccc2c(c1C)NC(=O)C2(c1ccc(O)cc1)C1CCCCCC1` (stereo not drawn) [Compound 1087, 3-cycloheptyl-3-(4-hydroxyphenyl)-6-methoxy-7-methylindolin-2-one] registered a half-inhibitory concentration (IC50) (Homo sapiens, MCF7, 72 h) of 4.7 nM.

In turn, `Cc1ccc2c(c1C)NC(=O)C2(c1ccc(O)cc1)C1CCCCCC1` (stereo not drawn) [Compound 1043, 3-cycloheptyl-3-(4-hydroxyphenyl)-6,7-dimethylindolin-2-one] yielded an IC50 (Homo sapiens, MCF7, 72 h) of 19.1 nM.

`Cc1ccc(C2(c3ccc(O)cc3)C(=O)Nc3c2ccc(F)c3F)cc1F` (stereo not drawn) [Compound 1023, 6,7-difluoro-3-(3-fluor-4-methylphenyl)-3-(4-hydroxyphenyl)indolin-2-one] returned an IC50 (Homo sapiens, MCF7, 72 h) of 4 nM.

The compound `COc1cc(C)c2c(c1)C(c1ccc(O)cc1)(C1CCCCC1)C(=O)N2` (stereo not drawn) [Compound 1070] came in with an IC50 (Homo sapiens, MCF7, 72 h) of 10 nM. This IC50 lies about 2.5-fold higher than the previous one.
